# Legend:
# rats = conditions: previous study; mammary tumors, prostate disease, kidney disease, testis and immune abnormalities; cited from earlier work
# [1] = system: testicular spermatogenic cells; experiment: Testicular spermatogenic cell apoptosis (TUNEL assay), F1-F3 lineage after F0 gestational exposure; assay type: in vivo, mouse
# Description: The experimental design involved exposing gestating female inbred 129 strain and outbred CD-1 strain mice to daily intraperitoneal (IP) injections of vehicle (DMSO) (control) or vinclozolin at two doses, 100 mg/kg/day (V1) or 200 mg/kg/day (V2), between embryonic day 7-13 of gestation. In addition, a comparison was used with flutamide IP injections at a 20/mg/kg/day dose. The F1 generation males and females from different litters were bred to generate the F2 generation animals and F2 generation males and females from different litters were bred to generate the F3 generation animals, see Methods below. No sibling or cousin breedings occurred to avoid any inbreeding artifacts. Selected F1, F2 and F3 generation animals from postnatal 90 (P90) or 300 (P300) days of age were analyzed for testis, sperm and other pathologies as previously described.^11, 20, 21
# Timed pregnant inbred 129 mice were given intraperitoneal injections with vinclozolin (100 mg/kg·day, 99% pure; ChemService, West Chester, Pa.), flutamide (20 mg/kg·day, Sigma, St. Louis, Mo.) or DMSO in sesame oil (vehicle) as controls, while timed pregnant outbred CD-1 mice were given intraperitoneal injections (IP) with vinclozolin doses: 100 mg/kg·day (V1) or 200 mg/kg·day (V2) or DMSO in sesame oil as controls.^21 Mice were given injections from embryonic day (E) E7-E13, with plug date equal to day 0. Controls were injected with vehicle (DMSO) dose and were matched with vinclozolin or flutamide treatment animals within the same mouse strain at the time of injection and were analyzed together throughout all three generations. […] Male mice were collected and analyzed between P60-P90 (P90) for all generations and treatment groups. […]
# CD-1 mice ovaries = experiment: Identification of ovarian cysts in vinclozolin lineage females; assay type: in vivo, mouse; conditions: CD-1 females, all F1-F3 generations, V2 200 mg/kg/day; p<0.05
# Description: Abnormalities in adult females of the F1, F2 and F3 generations were not extensively evaluated. However, at the time of sacrifice and dissection it was noticed that some females had cystic structures on their ovaries. These were grossly visible fluid-filled structures larger than normal Graffian follicles. If an animal had one or more cystic structures on one or both ovaries, then that female was considered to have cystic ovaries. A sub-set of 17 ovaries was also evaluated histologically, and there was concordance of ovaries labeled as cystic at gross dissection with the histologic presence of very large cystic structures. Cysts were defined as structures having a lining of none or a single layer of granulosa cells and an increased thickness of the surrounding stromal/thecal layer compared to what is found in large antral follicles.
# [2] = system: sperm promoter epigenome (DNA methylation); conditions: previous comparative MeDIP-Chip study; cited from earlier work
# caudal epididymal sperm = experiment: Epididymal sperm motility and concentration analyses; assay type: in vivo, mouse
# Description: The sperm motility was determined using caudal epididymal sperm. The epididymis was dissected free of connective tissue and a small cut made to the cauda. The tissue was placed in 2 ml F12 culture medium containing 0.1% BSA for 10 minutes at 37° C. Fifty microliters was placed on a warm slide and gently cover-slipped. The specimen was immediately examined using phase contrast microscopy with 200×magnification. The sperm motility assays examined rapid progressive, slow progressive and non-progressive motility according to WHO category.^51 The ratio of motile sperm to the total number of sperm, including immotile sperm, was calculated. Approximately 50-100 sperm were counted per microscopic field. The procedure was repeated at least twice with a new specimen from the same epididymis. Epididymal sperm count was determined using the same epididymis according to a previously described method with some modifications.^25, 52 Briefly, the epididymis that was placed in the 2 ml of culture medium was minced. The tissue pieces were stored at 4° C. for 48 hours to immobilize the sperm. Three independent sperm samples were counted using a hemocytometer. The counts were averaged and used as a replicate in statistical analysis. The control and vinclozolin generation analysis and the control and flutamide generation analysis for an individual experiment were done at the same time. All analyses were done blinded, such that different individuals were used for collection and counting.
compound,measurement,setting,value
"C=CC1(C)OC(=O)N(c2cc(Cl)cc(Cl)c2)C1=O (racemic) [vinclozolin, (RS)-3-(3,5-dichlorophenyl)-5-methyl-5-vinyl-1,3-oxazolidine-2,4-dione]",frequencies of adult onset disease states,rats,20-50%
same,mean number of apoptotic germ cells within the testes,"[1]; 129 inbred strain, vinclozolin 100 mg/kg/day IP to F0 E7-E13, F1, F2, F3 at P90, F1 and F2 at P300, vs control",increased
same,testicular apoptotic germ cells,"[1]; CD-1 outbred strain, V1 100 mg/kg/day IP to F0 E7-E13, F1 and F3 P90, F1, F2, F3 P300",significant increases
same,ovarian cysts,CD-1 mice ovaries,significant increase
same,number of promoters in rat sperm with transgenerational alteration in DNA methylation,[2],48
same,mean epididymal sperm concentration,"caudal epididymal sperm; primarily F1 generation, not observed in 129 strain F2 or F3",reduction
same,mean percentage of motile epididymal sperm,caudal epididymal sperm; primarily in the F1 generation males,reduction
